Test results published in PMC3795738 (PLoS ONE, 2013).
Where two headings read alike, the source gives them in different places.

T1: CapB1 (Met1 to Glu228), as it stands in the CapA1B1 chimera (Staphylococcus aureus, UniProt A8YPQ8 1-228)
T1 construct: also called Cap5B1; source: E. coli BL21(DE3), purified (IMAC, gel filtration) as part of the chimera CapA1B1
T1 sequence: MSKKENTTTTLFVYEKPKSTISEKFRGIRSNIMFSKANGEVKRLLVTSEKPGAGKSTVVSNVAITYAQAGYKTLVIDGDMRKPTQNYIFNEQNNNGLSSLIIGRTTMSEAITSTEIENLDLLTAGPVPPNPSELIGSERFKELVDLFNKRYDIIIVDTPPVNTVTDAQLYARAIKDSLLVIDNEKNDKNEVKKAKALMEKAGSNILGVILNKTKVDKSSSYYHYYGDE


How the values were obtained:
[1] = biological target: T2, CapB2 and CapA1Ct (GST-CapA1Ct) (Staphylococcus aureus, UniProt A8YPQ5+A8YPQ6); settings: 10 µM ATP, 5 mM MgCl2, pH 7.5, 37°C; labelled compound; GST-CapA1Ct as activator
Target sequence in this assay (A8YPQ5 entry or part of it, one chain of several): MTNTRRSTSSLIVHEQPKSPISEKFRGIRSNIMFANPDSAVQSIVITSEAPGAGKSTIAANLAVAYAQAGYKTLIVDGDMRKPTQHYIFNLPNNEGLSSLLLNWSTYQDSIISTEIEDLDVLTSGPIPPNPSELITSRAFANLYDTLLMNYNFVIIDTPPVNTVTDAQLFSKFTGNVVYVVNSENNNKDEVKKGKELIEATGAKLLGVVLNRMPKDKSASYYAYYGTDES

[2] = biological target: T2, CapB2 and CapA1Ct (GST-CapA1Ct); settings: 10 µM ATP, 5 mM MgCl2, pH 7.5, 37°C; labelled compound; GST-CapA1Ct(ΔN222) as activator
Target sequence in this assay (A8YPQ5 entry or part of it, one chain of several): as above

[3] = biological target: T1, CapB1 (Met1 to Glu228), as it stands in …; assay: crystal structure; settings: both partners purified

| Molecule | autophosphorylation with [γ-32P]ATP, SDS-PAGE, autoradiography [1] | autophosphorylation with [γ-32P]ATP, SDS-PAGE, autoradiography [2] | binding result [3] |
| --- | --- | --- | --- |
| Nc1ncnc2c1ncn2[C@@H]1O[C@H](COP(=O)(O)OP(=O)(O)OP(=O)(O)O)[C@@H](O)[C@H]1O [ATP] | CapB2 was incubated in the presence of radioactive ATP and different (wild type or mutated) | the Asn222 deletion did not affect the CapA1 ability to trigger CapB2 autophosphorylation |  |
| VIFDKRIKDEEDVEKELGLPVLGSIQKFN (domain or fragment, also called Cap5A1; source: E. coli BL21(DE3), purified (IMAC, gel filtration) as part of the chimera CapA1B1) [CapA1 C-terminal juxtamembrane fragment (Val194 to Asn222), as it stands in the CapA1B1 chimera] |  |  | binds |
